Laboratory results as given in PMC4715021, “^177Lu-labelled macrocyclic bisphosphonates for targeting bone metastasis in cancer treatment” (EJNMMI Research, 2016).
Values joined by “and” are separate entries in the source; they are usually repeats but may differ in a detail not shown here. Equal values may be shown once.

Assays:
[1] = Ex vivo biodistribution of 177Lu-complexes in Wistar rats; settings: for Biodistribution of radioactivity, Adipose tissue / Biodistribution of radioactivity, Adrenal gland / Biodistribution of radioactivity, Blood / Biodistribution of radioactivity, Brain / Biodistribution of radioactivity, Femur / Biodistribution of radioactivity, Harderian gland / Biodistribution of radioactivity, Heart / Biodistribution of radioactivity, Kidneys / Biodistribution of radioactivity, Liver / Biodistribution of radioactivity, Lung / Biodistribution of radioactivity, Muscle / Biodistribution of radioactivity, Pancreas / Biodistribution of radioactivity, Spleen / Biodistribution of radioactivity, Testes / Biodistribution of radioactivity, Thymus: i.v.
From the text: (§1) The experiments were realized corresponding to the German animal welfare regulations and institutional guidelines and with the permission of the local animal research committee at the Landesdirektion, Dresden. All experimental procedures are following the guidelines of the European Convention for the Protection of Vertebrate Animals used for Experimental and other Scientific Purposes (ETS No. 123). Male Wistar rats weighing 157.69 ± 17.10 g (mean ± SD, N = 35) were purchased from Unilever (HsdCpb:WU, Harlan Winkelmann, Borchen, Germany). Anesthetization was initiated and maintained by desflurane, and animals were put in the supine position and placed on a heating pad to maintain body temperature. A needle catheter was used for administration of the tracers in the tail vein. A second catheter was introduced into the right femoral artery for the extraction of blood samples for metabolite analysis, which was routinely done during SPECT/CT measurements.
The male Wistar rats received a short-term anesthetization by desflurane inhalation. Mean activities of 2.36 ± 0.27 MBq/kg of the ^177Lu-labelled tracers in isotonic saline were injected in a volume of 0.5 mL in the tail vein, with the following specific details: [^177Lu]citrate: 2.56 ± 0.07 MBq/kg, 128.58 body weight (BW, g), n = 4 (g); [^177Lu]BPAMD: 2.33 ± 0.11 MBq/kg, 159.41 BW (g), n = 4 (g); [^177Lu]BPAPD: 2.58 ± 0.24 MBq/kg, 156.38 BW (g), n = 4 (g); [^177Lu]BPPED: 2.27 ± 0.25 MBq/kg, 153.43 BW (g), n = 4 (g); [^177Lu]NO2AP^BP: 2.52 ± 0.25 MBq/kg, 173.82 BW (g), n = 4 (g); [^177Lu]DOTA(M^BP)2: 1.80 ± 0.10 MBq/kg, 181.64 BW (g), n = 4 (g); [^177Lu]DO2A(P^BP)2: 2.46 ± 0.15 MBq/kg, 150.60 BW (g), n = 4 (g). The compounds [^177Lu]DOTA(M^BP)2, [^177Lu]BPPED, and [^177Lu]BPAMD were further chosen for a biodistribution study after 8 days p.i. A mean activity of 19.0 ± 2.5 MBq/kg was injected. Animals were sacrificed after 5 min, 60 min, and 8 days p.i. Organs of interest were excised rapidly and weighed, and the ^177Lu activity was determined with a Wallac WIZARD automatic gamma counter (PerkinElmer, Germany) and decay corrected. The distribution data are expressed in %ID or are normalized to the BW as standard uptake value (SUV), which was calculated with the formula: SUV = (activity per g tissue)/(injected activity) × BW. The skeleton weight was calculated using the following: skeleton weight = 9.66 + 0.0355 × BW, and the total activities associated with the skeleton were calculated by using the activity concentration in the femur and the total skeleton weight.

[2] = Metabolite analysis and in vivo stability, arterial blood and urine samples; parameters: species or system Wistar rats
From the text: as §1
Arterial blood plasma samples were taken during SPECT/CT examinations after 1, 3, 5, 10, 20, 30, 60, and 120 min. p.i., and the in vivo metabolism of [^177Lu]BPAMD, [^177Lu]BPAPD, [^177Lu]BPPED, [^177Lu]NO2AP^BP, [^177Lu]DOTA(M^BP)2, and [^177Lu]DO2A(P^BP)2 was analyzed. Plasma was separated by centrifugation (3 min, 11,000×g) followed by precipitation of the plasma proteins with ice-cold methanol (1.5 parts per 1 part plasma) and centrifugation (3 min, 11,000×g). The supernatants were analyzed by radio-TLC and HPLC using the abovementioned methods for quality control. Additionally, urine samples were treated in the same way prior radio-TLC and radio-HPLC analysis.

[3] = 5 min p.i., mean of four animals
[4] = 60 min p.i., mean of four animals
[5] = 8 days p.i., mean for five animals

SMILES: O=C(O)CN1CCN(CC(=O)O)CCN(CP(=O)(O)CC(P(=O)(O)O)P(=O)(O)O)CCN(CC(=O)O)CC1 [[^177Lu]BPPED, metal not drawn]
- Ratio Bone/Adipose tissue ([1]; 5 min p.i.): 17.3
- Ratio Bone/Adrenal gland ([1]; 5 min p.i.): 5.9
- Ratio Bone/Blood ([1]; 5 min p.i.): 3.2
- Ratio Bone/Brain ([1]; 5 min p.i.): 104.0
- Ratio Bone/Harderian gland ([1]; 5 min p.i.): 10.4
- Ratio Bone/Heart ([1]; 5 min p.i.): 8.0
- Ratio Bone/Kidneys ([1]; 5 min p.i.): 1.3
- Ratio Bone/Liver ([1]; 5 min p.i.): 8.7
- Ratio Bone/Lung ([1]; 5 min p.i.): 5.5
- Ratio Bone/Muscle ([1]; 5 min p.i.): 17.3
- Ratio Bone/Pancreas ([1]; 5 min p.i.): 11.2
- Ratio Bone/Spleen ([1]; 5 min p.i.): 10.7
- Ratio Bone/Testes ([1]; 5 min p.i.): 11.6
- Ratio Bone/Thymus ([1]; 5 min p.i.): 10.9
- Biodistribution of radioactivity, Adipose tissue [1, 3]: 0.24 SUV
- Biodistribution of radioactivity, Adrenal gland [1, 3]: 0.70 SUV
- Biodistribution of radioactivity, Blood [1, 3]: 1.30 SUV
- Biodistribution of radioactivity, Brain [1, 3]: 0.04 SUV
- Biodistribution of radioactivity, Femur [1, 3]: 4.16 SUV
- Biodistribution of radioactivity, Harderian gland [1, 3]: 0.40 SUV
- Biodistribution of radioactivity, Heart [1, 3]: 0.52 SUV
- Biodistribution of radioactivity, Kidneys [1, 3]: 3.09 SUV
- Biodistribution of radioactivity, Liver [1, 3]: 0.48 SUV
- Biodistribution of radioactivity, Lung [1, 3]: 0.75 SUV
- Biodistribution of radioactivity, Muscle [1, 3]: 0.24 SUV
- Biodistribution of radioactivity, Pancreas [1, 3]: 0.37 SUV
- Biodistribution of radioactivity, Spleen [1, 3]: 0.39 SUV
- Biodistribution of radioactivity, Testes [1, 3]: 0.36 SUV
- Biodistribution of radioactivity, Thymus [1, 3]: 0.38 SUV
- Ratio Bone/Adipose tissue ([1]; 60 min p.i.): 269.7
- Ratio Bone/Adrenal gland ([1]; 60 min p.i.): 72.5
- Ratio Bone/Blood ([1]; 60 min p.i.): 92.9
- Ratio Bone/Brain ([1]; 60 min p.i.): 419.9
- Ratio Bone/Harderian gland ([1]; 60 min p.i.): 36.4
- Ratio Bone/Heart ([1]; 60 min p.i.): 141.1
- Ratio Bone/Kidneys ([1]; 60 min p.i.): 14.9
- Ratio Bone/Liver ([1]; 60 min p.i.): 42.3
- Ratio Bone/Lung ([1]; 60 min p.i.): 67.5
- Ratio Bone/Muscle ([1]; 60 min p.i.): 355.8
- Ratio Bone/Pancreas ([1]; 60 min p.i.): 181.6
- Ratio Bone/Spleen ([1]; 60 min p.i.): 41.0
- Ratio Bone/Testes ([1]; 60 min p.i.): 185.1
- Ratio Bone/Thymus ([1]; 60 min p.i.): 212.0
- Biodistribution of radioactivity, Adipose tissue [1, 4]: 0.02 SUV
- Biodistribution of radioactivity, Adrenal gland [1, 4]: 0.08 SUV
- Biodistribution of radioactivity, Blood [1, 4]: 0.06 SUV
- Biodistribution of radioactivity, Brain [1, 4]: 0.01 SUV
- Biodistribution of radioactivity, Femur [1, 4]: 5.67 ± 0.10 SUV and 5.67 SUV
- Biodistribution of radioactivity, Harderian gland [1, 4]: 0.16 SUV
- Biodistribution of radioactivity, Heart [1, 4]: 0.04 SUV
- Biodistribution of radioactivity, Kidneys [1, 4]: 0.38 SUV
- Biodistribution of radioactivity, Liver [1, 4]: 0.13 SUV
- Biodistribution of radioactivity, Lung [1, 4]: 0.08 SUV
- Biodistribution of radioactivity, Muscle [1, 4]: 0.02 SUV
- Biodistribution of radioactivity, Pancreas [1, 4]: 0.03 SUV
- Biodistribution of radioactivity, Spleen [1, 4]: 0.14 SUV
- Biodistribution of radioactivity, Testes [1, 4]: 0.03 SUV
- Biodistribution of radioactivity, Thymus [1, 4]: 0.03 SUV
- Ratio Bone/Adipose tissue ([1]; 8 days p.i.): 1231
- Ratio Bone/Adrenal gland ([1]; 8 days p.i.): 159
- Ratio Bone/Blood ([1]; 8 days p.i.): 5123
- Ratio Bone/Brain ([1]; 8 days p.i.): 365
- Ratio Bone/Harderian gland ([1]; 8 days p.i.): 46
- Ratio Bone/Heart ([1]; 8 days p.i.): 653
- Ratio Bone/Kidneys ([1]; 8 days p.i.): 59
- Ratio Bone/Liver ([1]; 8 days p.i.): 189
- Ratio Bone/Lung ([1]; 8 days p.i.): 637
- Ratio Bone/Muscle ([1]; 8 days p.i.): 192
- Ratio Bone/Pancreas ([1]; 8 days p.i.): 1104
- Ratio Bone/Spleen ([1]; 8 days p.i.): 246
- Ratio Bone/Testes ([1]; 8 days p.i.): 1214
- Ratio Bone/Thymus ([1]; 8 days p.i.): 933
- Biodistribution of radioactivity, Adipose tissue [1, 5]: 0.004 SUV
- Biodistribution of radioactivity, Adrenal gland [1, 5]: 0.033 SUV
- Biodistribution of radioactivity, Blood [1, 5]: 0.001 SUV
- Biodistribution of radioactivity, Brain [1, 5]: 0.014 SUV
- Biodistribution of radioactivity, Femur [1, 5]: 5.197 SUV
- Biodistribution of radioactivity, Harderian gland [1, 5]: 0.113 SUV
- Biodistribution of radioactivity, Heart [1, 5]: 0.008 SUV
- Biodistribution of radioactivity, Kidneys [1, 5]: 0.088 SUV
- Biodistribution of radioactivity, Liver [1, 5]: 0.027 SUV
- Biodistribution of radioactivity, Lung [1, 5]: 0.008 SUV
- Biodistribution of radioactivity, Muscle [1, 5]: 0.027 SUV
- Biodistribution of radioactivity, Pancreas [1, 5]: 0.005 SUV
- Biodistribution of radioactivity, Spleen [1, 5]: 0.021 SUV
- Biodistribution of radioactivity, Testes [1, 5]: 0.004 SUV
- Biodistribution of radioactivity, Thymus [1, 5]: 0.006 SUV
- Total skeletal retention ([1]; 8 days p.i., calculated from femur activity concentration and total skeleton weight): constant over 8 days
- Total skeleton retention ([1]; after 60 min, calculated from femur activity concentration and total skeleton weight): 56.3 ± 6.7 %ID
- Blood half-life of the slow component (t1/2(β)) ([2]; arterial blood, single intravenous injection): 18.7 min
- Metabolization in blood samples (radio-HPLC and TLC) ([2]; within a period of 120 min): no evidence of any metabolization
